According to patent US12473594B2, “Chemical tagging-based method for modified nucleoside sequencing, enrichment, and measurement” (PEKING UNIVERSITY, priority 2019, dated 2025):

Experiment: Half-life of DTT-6-A and hm^6A in aqueous solutions with different pH values
Format: physicochemical
Conditions: aqueous solution, neutral environment
Protocol: In order to study whether the stability of product (DTT-6-A) produced by the reaction of hm^6A and DTT was improved compared with hm^6A, half-life of DTT-6-A in aqueous solutions with different pH values was measured.

OCNc1ncnc2c1ncn2[C@@H]1O[C@H](CO)[C@@H](O)[C@H]1O [hm^6A, N^6-hydroxymethyl adenine nucleoside]
half-life: 2 h
